Assay results: patent US20250243219A1, “MACROCYCLIC COMPOUNDS AND USES THEREOF” (Cypralis Limited, priority 2022, published 2025)

Columns and labels:
[1] = biological target: cyclophilin D (Homo sapiens (Human), UniProt P30405); assay: Functional peptidyl prolyl isomerase (PPIase) spectrophotometric assay, cyclophilin D; type: biochemical; details: second value of CypA/D cell; read-out: Ki CypD
Description: (§1) Cyclophilins are enzymes that catalyse the cis-trans isomerisation of peptide bonds to the amino acid proline. This event is important in many biological processes, including protein folding and signal transduction. […] The method to measure this activity and its inhibition is similar to that described by Jankowski (Analytical Biochemistry, 252, 2, 299-307 (1997)). The assay measures the cis to trans isomerisation of a peptide substrate catalysed by a PPlase enzyme using a UV/Vis spectrophotometer. This assay is a manual single cuvette-based assay. A first order rate equation is fitted to the absorbance data to obtain a rate constant. The catalytic rate is calculated from the enzymatic rate minus the background rate. The Ki (the concentration required to produce half maximum inhibition) for an inhibitor is obtained from the rate constant plotted against the inhibitor concentration. Typically, a 6-point dose response curve is obtained from duplicates and a Ki determined. Data are given in Table 5 as Ki [nM] for cyclophilins A and D, expressed in column 2 of Table 5 as Ki (cypA)/Ki (cypD).

[2] = biological target: cyclophilin A (Homo sapiens (Human), UniProt P62937); assay: Functional peptidyl prolyl isomerase (PPIase) spectrophotometric assay, cyclophilin A; type: biochemical; details: first value of CypA/D cell
Sequence of cyclophilin A (P62937 whole entry, species assumed): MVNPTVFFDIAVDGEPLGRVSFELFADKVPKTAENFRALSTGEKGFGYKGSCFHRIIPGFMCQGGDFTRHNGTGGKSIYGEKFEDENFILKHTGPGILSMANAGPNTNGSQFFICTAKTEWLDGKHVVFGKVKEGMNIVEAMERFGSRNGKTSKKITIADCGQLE
Description: as §1

[3] = tested on: SH-SY5Y cells; assay: Thapsigargin treated cell death assay in SH-SY5Y cells; type: cell-based, human; details: compound at 10 μM, positive = protection from cell death, negative = compound toxicity
Description: Thapsigargin raises intracellular free calcium (Ca^2+) by potently inhibiting the endoplasmic reticulum Ca-ATPase, which sequesters Ca^2+ from the cytosol. The increased cytosolic Ca^2+ concentration is buffered by mitochondria by exchanging Ca^2+ for K, leading to depolarisation in the inner mitochondrial membrane and permeability transition.
The thapsigargin treated Jurkat cell death assay is a homogeneous 96 well plate based assay for cell death, instigated by the opening of the mitochondrial permeability transition pore (MPTP). The addition of thapsigargin to Jurkat cells results in an influx of calcium, the increase in intracellular calcium will initially be buffered by the mitochondria, but eventually the increasing calcium concentration will result in the opening of the MPTP, resulting in cell death.
CellTox™ Green is a dye which is unable to enter the cell until cell death leads to the loss of membrane integrity. Once this happens the CellTox™ Green enters the cell, binds to the cell's DNA and emits a fluorescent signal. […] Unless otherwise stated, the assay is typically run using a range of three compound concentrations of 1, 3 and 10 μM in triplicate and is read kinetically over a period of 24 hours. Compounds are added 30 minutes before the addition of thapsigargin. Compound only controls and positive control, cyclosporin A (CsA) (3 and 10 μM) are also included in the assay. Results are typically calculated at the 8 hour time point and the kinetic data is also reported.
The assay is carried out as described for the Jurkat cells but using the SH-SY5Y (human neuroblastoma) cell line instead of Jurkat cells. The results are shown in the fourth column of Table 5 (SY5Y [10 μM]% recovery). Positive numbers indicate protection from cell death, negative numbers indicate compound toxicity.

[4] = tested on: permeabilised HepG2 cells; assay: Calcium retention capacity (CRC) assay in permeabilised HepG2 cells (MPTP opening); type: cell-based, human; set-up: CRC [10 μM]: unit not given here; details: compound at 10 μM; for CRC [10 μM]: digitonin permeabilised HepG2 cells; for CRC [10 μM] (ratio vs CsA): normalised to cyclosporin A, value in brackets
Description: The use of permeabilised cells means that inhibitory compounds that may not normally enter non-permeabilised cells are more likely to be active.
The calcium retention capacity (CRC) is a measure of the capability of mitochondria to retain calcium, primarily in the form of calcium phosphates, in the mitochondrial matrix.
In a CRC assay, the calcium indicator Calcium Green-5N (InVitrogen) is utilized. […] The assay is carried out in HepG2 (human hepatocellular carcinoma) cells which are digitonin permeabilized. Trains of calcium pulses (typically 5 μM additions) are added which results in a sudden increase in fluorescence which is then reduced by mitochondrial buffering. The cells will reach a point at which the calcium addition is no longer buffered, an indication that the MPTP has opened (mitochondrial permeability transition).
The experiment is performed with and without inhibitor. A compound that acts to inhibit the mitochondrial pore opening will result in a greater requirement for calcium to reach the transition point. The results are normalised to a positive control (cyclosporin A) in each experiment. The results are shown in column 3 of Table 5 as CRC [10 μM] (ratio vs CsA). The method of digitonin permeabilised whole cell CRC assay is similar to that used by Chiara et al. (PLoS One, March, 3, 3, e1852 (2008)).

Sequence of cyclophilin D (P30405 30-207, species assumed): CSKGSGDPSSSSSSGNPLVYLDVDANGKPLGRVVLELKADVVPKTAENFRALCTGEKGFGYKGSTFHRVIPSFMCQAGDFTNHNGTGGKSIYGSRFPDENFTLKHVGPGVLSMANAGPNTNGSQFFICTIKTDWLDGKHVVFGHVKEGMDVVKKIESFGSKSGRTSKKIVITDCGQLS

| Ki [1] [nM] | Ki [2] [nM] | Compound | SYSY [10 μM] % recovery [3] [%] | CRC [10 μM] [4] | CRC [10 μM] (ratio vs CsA) [4] | further results |
| --- | --- | --- | --- | --- | --- | --- |
| 26 | 40 | CC(C)[C@@H]1OC(=O)C(C)(C)/C=C/c2ccc3ccc(nc3c2)N(C)NC(=O)[C@@H]2CCCN(N2)C(=O)[C@H](CCC(=O)NCC2CCOCC2)NC1=O [Compound (67)] | 52 | 25 | 1.00 |  |
| 9 | 1.7 | CC(C)[C@@H]1OC(=O)[C@@](C)(Cc2ccccc2)/C=C/c2ccc3ccc(nc3c2)N(C)NC(=O)[C@@H]2CCCN(N2)C(=O)[C@H](C)NC1=O [Compound (17)] | 87.8 | 33.3 | 0.95 |  |
| 220 | 30 | C[C@@H]1NC(=O)C(Cc2ccc(C(=O)O)cc2)OC(=O)C(C)(C)/C=C/c2ccc3ccc(nc3c2)N(C)NC(=O)[C@@H]2CCCN(N2)C1=O (single isomer, unassigned) [Compound (41)] |  |  |  | SYSY [10 μM] % recovery ([3]; listed as 41): 0%; CRC [10 μM] ([4]; listed as 41): 10; CRC [10 μM] (ratio vs CsA) ([4]; listed as 41): 0.67 |
| 15 | 11 | CC(C)[C@@H]1OC(=O)C(C)(C)/C=C/c2ccc3ccc(nc3c2)N(C)NC(=O)[C@@H]2CCCN(N2)C(=O)[C@H](CCC(=O)Nc2ccccc2)NC1=O [Compound (63)] | 48 | 30 | 1.00 |  |
| 22 | 14 | CC(C)[C@@H]1OC(=O)C(C)(C)/C=C/c2ccc3ccc(nc3c2)N(C)NC(=O)[C@@H]2CCCN(N2)C(=O)[C@H](CCC(=O)NCc2cccnc2)NC1=O [Compound (65)] | 51 | 20 | 0.90 |  |
| 4.25 | 1.85 | CC(C)[C@@H]1OC(=O)C(C)(C)/C=C/c2ccc3ccc(nc3c2)N(C)NC(=O)[C@@H]2CCCN(N2)C(=O)[C@H](CCCCNCc2ccc3ccccc3c2)NC1=O [Compound (61)] | 35 | 20 | 0.78 |  |
| 6.6 | 3.6 | CC(C)[C@@H]1OC(=O)C(C)(C)/C=C/c2ccc3ccc(nc3c2)N(C)NC(=O)[C@@H]2CCCN(N2)C(=O)[C@H](CCC(=O)N[C@H](C)c2ccccc2)NC1=O [Compound (66)] | 63 | 25 | 0.80 |  |
| 1.6 | 2.4 | C[C@@H]1NC(=O)[C@H](Cc2cccc(N)c2)OC(=O)C(C)(C)/C=C/c2ccc3ccc(nc3c2)N(C)NC(=O)[C@@H]2CCCN(N2)C1=O [Compound (50)] | 25 | 20 | 1.00 |  |
| 36 | 30 | CNC(=O)c1ccc(CC2OC(=O)C(C)(C)/C=C/c3ccc4ccc(nc4c3)N(C)NC(=O)[C@@H]3CCCN(N3)C(=O)[C@H](C)NC2=O)cc1 (single isomer, unassigned) [Compound (39)] |  |  |  | SYSY [10 μM] % recovery ([3]; listed as 39): 0%; CRC [10 μM] ([4]; listed as 39): 15; CRC [10 μM] (ratio vs CsA) ([4]; listed as 39): 0.67 |
| 4.3 | 1.7 | CC(C)[C@@H]1OC(=O)C(C)(C)/C=C/c2ccc3ccc(nc3c2)N(Cc2ccccc2)NC(=O)[C@@H]2CCCN(N2)C(=O)[C@H](C)NC1=O [Compound (9)] | 87.067 | 279.4 | 1 |  |

Second part, the compound before the results:

| Compound | Ki [1] [nM] | Ki [2] [nM] | SYSY [10 μM] % recovery [3] [%] | CRC [10 μM] [4] | CRC [10 μM] (ratio vs CsA) [4] | further results |
| --- | --- | --- | --- | --- | --- | --- |
| CC(C)[C@@H]1CC(=O)C(C)(C)/C=C/c2ccc3ccc(nc3c2)N(C)NC(=O)[C@@H]2CCCN(N2)C(=O)[C@H](C)NC1=O [Compound (25)] | 6.2 | 17.5 | 26.2 | 20 | 0.8 |  |
| C[C@@H]1NC(=O)[C@H](CN2CCNCC2)OC(=O)C(C)(C)/C=C/c2ccc3ccc(nc3c2)N(C)NC(=O)[C@@H]2CCCN(N2)C1=O [Compound (48)] | 11 | 26 | 46 | 10 | 0.5 |  |
| C[C@@H]1NC(=O)[C@H](C[C@@H]2CCCNC2)OC(=O)C(C)(C)/C=C/c2ccc3ccc(nc3c2)N(C)NC(=O)[C@@H]2CCCN(N2)C1=O [Compound (57)] | 7.6 | 7.8 | 48.48 | 15 | 0.75 |  |
| C[C@@H]1NC(=O)[C@H](CC2CCCNC2)NC(=O)C(C)(C)/C=C/c2ccc3ccc(nc3c2)N(C)NC(=O)[C@@H]2CCCN(N2)C1=O (stereo partly shown) [Compound (35)] | 1100 | 1100 | 37 | 10 | 0.41 |  |
| C[C@@H]1NC(=O)[C@H](Cc2ccc(NS(C)(=O)=O)cc2)OC(=O)C(C)(C)/C=C/c2ccc3ccc(nc3c2)N(C)NC(=O)[C@@H]2CCCN(N2)C1=O [Compound (46)] | 2.5 | 3 | 29 | 25 | 1.00 |  |
| COc1ccc(C[C@@H]2OC(=O)C(C)(C)/C=C/c3ccc4ccc(nc4c3)N(C)NC(=O)[C@@H]3CCCN(N3)C(=O)[C@H](C)NC2=O)cc1 [Compound (60)] | 9.5 | 1.3 | 37 | 25 | 0.80 |  |
| CC(C)[C@H]1OC(=O)C/C=C/c2ccc3ccc(nc3c2)N(C)NC(=O)[C@@H]2CCCN(N2)C(=O)[C@H](C)NC1=O (stereo in doubt) [Compound (1)] | 54 | 25 | 8.4 | 35 | 0.95 |  |
| C[C@@H]1NC(=O)[C@H](CCCN)OC(=O)C(C)(C)/C=C/c2ccc3ccc(nc3c2)N(C)NC(=O)[C@@H]2CCCN(N2)C1=O [Compound (55)] | 1900 | 110 | 37 | 5 | 0.25 |  |
| C[C@@H]1NC(=O)[C@@H](CC2CCCNC2)OC(=O)C(C)(C)/C=C/c2ccc3ccc(nc3c2)N(C)NC(=O)[C@@H]2CCCN(N2)C1=O (single isomer, unassigned) [Compound (30)] | 450 |  |  | 10 | 0.33 | SYSY [10 μM] % recovery ([3]; listed as 30): 10% |
| C[C@@H]1NC(=O)C(Cc2ccc(C(=O)O)cc2)OC(=O)C(C)(C)/C=C/c2ccc3ccc(nc3c2)N(C)NC(=O)[C@@H]2CCCN(N2)C1=O (single isomer, unassigned) [Compound (40)] |  |  |  |  |  | SYSY [10 μM] % recovery ([3]; listed as 40): 51%; CRC [10 μM] ([4]; listed as 40): 5; CRC [10 μM] (ratio vs CsA) ([4]; listed as 40): 0.33 |
